Test results published in the kinase profiling compilation of Christmann-Franck et al. (2016).

How the values were obtained:
Test in all cases: radiometric filter-binding kinase assay, Kinase HotSpot
Conditions in all cases: compound 0.5 µM; ATP 10 µM
RPS6KA4 KD2 (human) = RPS6KA4 KD2 (human) (UniProt O75676)
MAP4K4 (human) = MAP4K4 (human) (UniProt O95819)
MAP3K14 (human) = MAP3K14 (human) (UniProt Q99558)
DAPK3 (human) = DAPK3 (human) (UniProt O43293)
CAMKK1 (human) = CAMKK1 (human) (UniProt Q8N5S9)
PAK3 (human) = PAK3 (human) (UniProt O75914)
AKT3 (human) = AKT3 (human) (UniProt Q9Y243)
DYRK1B (human) = DYRK1B (human) (UniProt Q9Y463)
RPS6KB1 (human) = RPS6KB1 (human) (UniProt P23443)
MAP3K7 TAB1 (human) = MAP3K7 TAB1 (human) (UniProt O43318+Q15750)
EPHA2 (human) = EPHA2 (human) (UniProt P29317)
EPHA5 (human) = EPHA5 (human) (UniProt P54756)
TXK (human) = TXK (human) (UniProt P42681)
CDC42BPA (human) = CDC42BPA (human) (UniProt Q5VT25)
DSTYK (human) = DSTYK (human) (UniProt Q6XUX3)
MAP3K5 (human) = MAP3K5 (human) (UniProt Q99683)
MAPK11 (human) = MAPK11 (human) (UniProt Q15759)
PIM2 (human) = PIM2 (human) (UniProt Q9P1W9)
PTK2B (human) = PTK2B (human) (UniProt Q14289)
RPS6KA3 KD1 KD2 (human) = RPS6KA3 KD1 KD2 (human) (UniProt P51812)
MAPK10 (human) = MAPK10 (human) (UniProt P53779)
ITK (human) = ITK (human) (UniProt Q08881)
MET (human) = MET (human) (UniProt P08581)
PRKCB1 (human) = PRKCB1 (human) (UniProt P05771)
CDK1 CCNB1 (human) = CDK1 CCNB1 (human) (UniProt P06493+P14635)
CSNK1G1 (human) = CSNK1G1 (human) (UniProt Q9HCP0)
TNK2 (human) = TNK2 (human) (UniProt Q07912)
FGFR3 (human) = FGFR3 (human) (UniProt P22607)
ACVR1B (human) = ACVR1B (human) (UniProt P36896)
CHEK2 (human) = CHEK2 (human) (UniProt O96017)
PRKD3 (human) = PRKD3 (human) (UniProt O94806)
MAP3K2 (human) = MAP3K2 (human) (UniProt Q9Y2U5)
ADRBK2 (human) = ADRBK2 (human) (UniProt P35626)
YES1 (human) = YES1 (human) (UniProt P07947)
CAMK2G (human) = CAMK2G (human) (UniProt Q13555)
VRK1 (human) = VRK1 (human) (UniProt Q99986)
PIM1 (human) = PIM1 (human) (UniProt P11309)
HIPK3 (human) = HIPK3 (human) (UniProt Q9H422)
BTK (human) = BTK (human) (UniProt Q06187)
PRKCD (human) = PRKCD (human) (UniProt Q05655)
NTRK1 (human) = NTRK1 (human) (UniProt P04629)
STK25 (human) = STK25 (human) (UniProt O00506)

MAPK11 (human), sequence (Q15759 whole entry, looked up): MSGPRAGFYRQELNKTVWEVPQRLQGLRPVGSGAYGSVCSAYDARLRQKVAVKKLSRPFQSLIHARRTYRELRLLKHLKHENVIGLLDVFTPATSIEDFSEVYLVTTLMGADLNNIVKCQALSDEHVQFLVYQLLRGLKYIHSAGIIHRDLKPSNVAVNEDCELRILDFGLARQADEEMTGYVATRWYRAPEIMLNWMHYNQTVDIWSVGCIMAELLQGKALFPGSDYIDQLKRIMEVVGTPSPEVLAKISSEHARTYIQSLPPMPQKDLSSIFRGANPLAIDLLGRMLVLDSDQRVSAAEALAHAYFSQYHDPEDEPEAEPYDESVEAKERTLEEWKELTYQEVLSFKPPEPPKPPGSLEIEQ
MAP3K7 TAB1 (human), sequence (O43318 whole entry, looked up): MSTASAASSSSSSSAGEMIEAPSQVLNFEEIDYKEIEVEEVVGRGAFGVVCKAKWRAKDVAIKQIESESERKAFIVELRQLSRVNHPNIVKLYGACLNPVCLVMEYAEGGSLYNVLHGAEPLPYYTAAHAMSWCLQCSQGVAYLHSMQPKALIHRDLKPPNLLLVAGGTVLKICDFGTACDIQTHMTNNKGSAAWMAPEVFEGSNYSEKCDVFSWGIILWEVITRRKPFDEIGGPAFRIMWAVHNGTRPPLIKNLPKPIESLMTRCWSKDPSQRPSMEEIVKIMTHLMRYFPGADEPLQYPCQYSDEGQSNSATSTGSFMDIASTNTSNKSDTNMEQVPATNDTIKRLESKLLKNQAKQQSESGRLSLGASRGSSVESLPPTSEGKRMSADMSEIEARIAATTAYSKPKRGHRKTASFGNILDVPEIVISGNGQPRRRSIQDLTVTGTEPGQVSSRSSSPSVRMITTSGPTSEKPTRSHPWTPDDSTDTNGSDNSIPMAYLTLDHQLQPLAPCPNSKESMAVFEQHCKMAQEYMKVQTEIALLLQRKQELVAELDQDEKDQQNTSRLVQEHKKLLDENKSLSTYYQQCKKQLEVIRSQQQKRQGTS
MAP3K7 TAB1 (human), sequence (Q15750 whole entry, looked up): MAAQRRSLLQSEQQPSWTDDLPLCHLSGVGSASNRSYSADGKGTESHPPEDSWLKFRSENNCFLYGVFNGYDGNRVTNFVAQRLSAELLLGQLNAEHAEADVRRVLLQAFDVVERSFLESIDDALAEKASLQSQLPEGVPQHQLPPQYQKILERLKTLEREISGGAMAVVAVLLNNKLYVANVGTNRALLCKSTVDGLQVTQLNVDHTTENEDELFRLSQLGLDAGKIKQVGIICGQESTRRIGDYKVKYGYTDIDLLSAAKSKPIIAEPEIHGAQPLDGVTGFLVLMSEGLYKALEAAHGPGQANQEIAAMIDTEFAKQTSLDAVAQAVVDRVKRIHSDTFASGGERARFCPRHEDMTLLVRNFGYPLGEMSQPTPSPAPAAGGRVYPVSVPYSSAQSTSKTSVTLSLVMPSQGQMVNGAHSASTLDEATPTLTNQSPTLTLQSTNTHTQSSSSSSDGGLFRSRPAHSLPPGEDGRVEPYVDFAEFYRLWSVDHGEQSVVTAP
DYRK1B (human), sequence (Q9Y463 whole entry, looked up): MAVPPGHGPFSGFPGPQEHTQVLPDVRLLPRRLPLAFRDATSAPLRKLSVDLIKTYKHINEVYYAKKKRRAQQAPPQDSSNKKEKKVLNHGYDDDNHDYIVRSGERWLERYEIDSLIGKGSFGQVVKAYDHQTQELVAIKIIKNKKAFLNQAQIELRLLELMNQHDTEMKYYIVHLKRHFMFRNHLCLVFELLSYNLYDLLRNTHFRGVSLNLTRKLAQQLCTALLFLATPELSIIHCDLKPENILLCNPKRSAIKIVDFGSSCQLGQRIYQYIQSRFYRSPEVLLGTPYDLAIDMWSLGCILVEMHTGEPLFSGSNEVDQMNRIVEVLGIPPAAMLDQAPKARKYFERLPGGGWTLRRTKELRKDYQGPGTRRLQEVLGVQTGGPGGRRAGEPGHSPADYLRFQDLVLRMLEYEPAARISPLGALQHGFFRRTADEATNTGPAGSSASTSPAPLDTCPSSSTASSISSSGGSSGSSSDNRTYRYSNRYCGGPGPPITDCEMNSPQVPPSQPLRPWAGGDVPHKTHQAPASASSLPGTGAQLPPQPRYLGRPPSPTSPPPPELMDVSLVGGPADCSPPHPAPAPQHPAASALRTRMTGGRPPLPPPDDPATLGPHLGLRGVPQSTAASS
PRKD3 (human), sequence (O94806 whole entry, looked up): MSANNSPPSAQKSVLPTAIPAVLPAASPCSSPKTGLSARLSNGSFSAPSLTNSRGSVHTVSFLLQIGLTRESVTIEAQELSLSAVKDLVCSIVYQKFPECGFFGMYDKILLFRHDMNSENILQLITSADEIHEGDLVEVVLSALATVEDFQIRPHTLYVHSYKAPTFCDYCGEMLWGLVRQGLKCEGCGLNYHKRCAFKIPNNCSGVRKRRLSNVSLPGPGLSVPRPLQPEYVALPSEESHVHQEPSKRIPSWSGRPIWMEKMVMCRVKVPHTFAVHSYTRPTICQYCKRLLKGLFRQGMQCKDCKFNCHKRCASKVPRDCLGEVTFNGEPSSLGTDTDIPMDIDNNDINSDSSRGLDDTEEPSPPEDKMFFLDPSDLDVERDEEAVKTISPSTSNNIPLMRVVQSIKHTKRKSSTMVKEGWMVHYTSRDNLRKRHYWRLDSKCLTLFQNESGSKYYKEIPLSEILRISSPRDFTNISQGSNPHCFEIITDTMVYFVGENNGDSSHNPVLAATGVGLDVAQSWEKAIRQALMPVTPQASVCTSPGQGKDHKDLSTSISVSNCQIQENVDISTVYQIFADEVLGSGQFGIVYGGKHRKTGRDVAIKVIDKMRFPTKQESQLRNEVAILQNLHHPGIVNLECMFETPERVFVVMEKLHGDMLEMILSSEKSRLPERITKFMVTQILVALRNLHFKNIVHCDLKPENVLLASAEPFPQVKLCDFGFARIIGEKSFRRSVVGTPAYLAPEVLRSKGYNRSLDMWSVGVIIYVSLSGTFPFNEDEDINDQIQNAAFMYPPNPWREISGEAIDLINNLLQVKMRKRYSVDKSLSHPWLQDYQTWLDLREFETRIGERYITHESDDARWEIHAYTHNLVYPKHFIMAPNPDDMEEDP
FGFR3 (human), sequence (P22607 whole entry, looked up): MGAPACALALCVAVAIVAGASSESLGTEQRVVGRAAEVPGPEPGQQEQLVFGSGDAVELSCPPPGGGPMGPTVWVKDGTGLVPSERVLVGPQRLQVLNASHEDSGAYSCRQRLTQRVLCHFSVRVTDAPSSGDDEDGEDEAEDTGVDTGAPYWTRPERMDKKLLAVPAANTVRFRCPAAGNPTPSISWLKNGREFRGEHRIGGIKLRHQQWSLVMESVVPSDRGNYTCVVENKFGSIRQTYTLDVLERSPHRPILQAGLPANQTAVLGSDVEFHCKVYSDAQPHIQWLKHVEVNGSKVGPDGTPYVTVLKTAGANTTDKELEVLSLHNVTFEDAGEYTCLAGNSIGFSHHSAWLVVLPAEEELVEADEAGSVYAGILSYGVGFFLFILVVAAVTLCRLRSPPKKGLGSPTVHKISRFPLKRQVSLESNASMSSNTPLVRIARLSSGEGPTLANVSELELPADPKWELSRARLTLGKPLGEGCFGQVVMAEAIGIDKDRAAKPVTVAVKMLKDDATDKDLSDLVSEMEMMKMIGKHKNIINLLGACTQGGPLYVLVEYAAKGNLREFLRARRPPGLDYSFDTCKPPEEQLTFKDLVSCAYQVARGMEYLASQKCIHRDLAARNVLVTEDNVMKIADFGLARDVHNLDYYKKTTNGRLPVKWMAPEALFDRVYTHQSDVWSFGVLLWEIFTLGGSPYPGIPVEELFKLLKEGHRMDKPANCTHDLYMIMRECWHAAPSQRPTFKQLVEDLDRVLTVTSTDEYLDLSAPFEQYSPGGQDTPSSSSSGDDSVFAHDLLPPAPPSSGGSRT
RPS6KA4 KD2 (human), sequence (O75676 whole entry, looked up): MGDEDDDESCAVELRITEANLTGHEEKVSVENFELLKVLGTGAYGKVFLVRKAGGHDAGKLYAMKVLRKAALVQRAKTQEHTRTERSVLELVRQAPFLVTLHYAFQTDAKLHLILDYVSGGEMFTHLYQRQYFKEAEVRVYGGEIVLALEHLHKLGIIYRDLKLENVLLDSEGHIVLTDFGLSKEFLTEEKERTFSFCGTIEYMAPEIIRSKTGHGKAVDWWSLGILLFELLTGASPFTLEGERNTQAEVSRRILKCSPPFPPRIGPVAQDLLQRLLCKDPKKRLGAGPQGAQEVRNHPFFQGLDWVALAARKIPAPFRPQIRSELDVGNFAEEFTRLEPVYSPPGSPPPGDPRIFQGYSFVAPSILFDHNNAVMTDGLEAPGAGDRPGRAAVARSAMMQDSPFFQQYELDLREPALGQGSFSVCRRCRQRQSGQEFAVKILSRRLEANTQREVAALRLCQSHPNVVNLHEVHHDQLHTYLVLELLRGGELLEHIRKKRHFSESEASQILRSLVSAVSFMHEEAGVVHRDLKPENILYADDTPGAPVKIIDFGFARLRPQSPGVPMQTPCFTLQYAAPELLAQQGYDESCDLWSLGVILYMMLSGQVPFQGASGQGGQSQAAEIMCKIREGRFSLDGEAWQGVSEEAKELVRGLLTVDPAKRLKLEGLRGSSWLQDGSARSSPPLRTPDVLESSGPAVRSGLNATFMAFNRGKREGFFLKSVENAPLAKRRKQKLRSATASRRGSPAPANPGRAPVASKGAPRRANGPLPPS
MAPK10 (human), sequence (P53779 whole entry, looked up): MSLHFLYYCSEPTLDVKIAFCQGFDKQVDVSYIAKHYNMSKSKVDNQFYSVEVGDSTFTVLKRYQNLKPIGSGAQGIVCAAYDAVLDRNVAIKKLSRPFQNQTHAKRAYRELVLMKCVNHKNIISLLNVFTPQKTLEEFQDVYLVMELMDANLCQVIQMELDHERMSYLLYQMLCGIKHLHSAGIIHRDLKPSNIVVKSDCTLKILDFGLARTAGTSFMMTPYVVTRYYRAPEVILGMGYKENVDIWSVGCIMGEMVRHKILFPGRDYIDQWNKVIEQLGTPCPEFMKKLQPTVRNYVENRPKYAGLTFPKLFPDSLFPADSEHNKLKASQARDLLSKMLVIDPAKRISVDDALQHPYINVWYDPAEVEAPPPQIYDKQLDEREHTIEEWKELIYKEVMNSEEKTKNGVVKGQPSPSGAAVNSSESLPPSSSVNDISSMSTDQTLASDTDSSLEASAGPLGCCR

Nc1nc(Nc2ccc(S(N)(=O)=O)cc2)nn1C(=S)Nc1c(F)cccc1F
residual activity (RPS6KA4 KD2 (human)): 42.8% | residual activity (MAP4K4 (human)): 4.46% | residual activity (MAP3K14 (human)): 29.1% | residual activity (DAPK3 (human)): 94.2% | residual activity (CAMKK1 (human)): 36% | residual activity (PAK3 (human)): 35.4% | residual activity (AKT3 (human)): 96.4% | residual activity (DYRK1B (human)): 14.1% | residual activity (RPS6KB1 (human)): 30% | residual activity (MAP3K7 TAB1 (human)): 12.5% | residual activity (EPHA2 (human)): 29.9% | residual activity (EPHA5 (human)): 56.7% | residual activity (TXK (human)): 85.8% | residual activity (CDC42BPA (human)): 54.6% | residual activity (DSTYK (human)): 17.8% | residual activity (MAP3K5 (human)): 1.12% | residual activity (MAPK11 (human)): 78.5% | residual activity (PIM2 (human)): 106% | residual activity (PTK2B (human)): 33.6% | residual activity (RPS6KA3 KD1 KD2 (human)): -0.692% | residual activity (MAPK10 (human)): 105% | residual activity (ITK (human)): 61% | residual activity (MET (human)): 40.4% | residual activity (PRKCB1 (human)): 75.2% | residual activity (CDK1 CCNB1 (human)): -1.78% | residual activity (CSNK1G1 (human)): 16.7% | residual activity (TNK2 (human)): 6.41% | residual activity (FGFR3 (human)): 4.96% | residual activity (ACVR1B (human)): 92.2% | residual activity (CHEK2 (human)): 1.96% | residual activity (PRKD3 (human)): 7.37% | residual activity (MAP3K2 (human)): -0.498% | residual activity (ADRBK2 (human)): 88% | residual activity (YES1 (human)): 10.5% | residual activity (CAMK2G (human)): 15.6% | residual activity (VRK1 (human)): 94.6% | residual activity (PIM1 (human)): 90.7% | residual activity (HIPK3 (human)): 78.2% | residual activity (BTK (human)): 84.1% | residual activity (PRKCD (human)): 22.2% | residual activity (NTRK1 (human)): 31.7% | residual activity (STK25 (human)): 8.18%

CC(C)[C@H](CO)Nc1nc(Nc2cccc(Cl)c2)c2ncn(C(C)C)c2n1
residual activity (RPS6KA4 KD2 (human)): 90.1% | residual activity (MAP4K4 (human)): 84.9% | residual activity (MAP3K14 (human)): 112% | residual activity (DAPK3 (human)): 104% | residual activity (CAMKK1 (human)): 101% | residual activity (PAK3 (human)): 94.2% | residual activity (AKT3 (human)): 102% | residual activity (DYRK1B (human)): 49.9% | residual activity (RPS6KB1 (human)): 90.8% | residual activity (MAP3K7 TAB1 (human)): 71.1% | residual activity (EPHA2 (human)): 89.5% | residual activity (EPHA5 (human)): 87.9% | residual activity (TXK (human)): 54.1% | residual activity (CDC42BPA (human)): 92.3% | residual activity (DSTYK (human)): 105% | residual activity (MAP3K5 (human)): 108% | residual activity (MAPK11 (human)): 109% | residual activity (PIM2 (human)): 105% | residual activity (PTK2B (human)): 66.5% | residual activity (RPS6KA3 KD1 KD2 (human)): 86.3% | residual activity (MAPK10 (human)): 96.7% | residual activity (ITK (human)): 86.9% | residual activity (MET (human)): 96.2% | residual activity (PRKCB1 (human)): 102% | residual activity (CDK1 CCNB1 (human)): 34.9% | residual activity (CSNK1G1 (human)): 28% | residual activity (TNK2 (human)): 55.6% | residual activity (FGFR3 (human)): 99.2% | residual activity (ACVR1B (human)): 99.8% | residual activity (CHEK2 (human)): 88.1% | residual activity (PRKD3 (human)): 95.5% | residual activity (MAP3K2 (human)): 97.8% | residual activity (ADRBK2 (human)): 99.1% | residual activity (YES1 (human)): 21.2% | residual activity (CAMK2G (human)): 96.9% | residual activity (VRK1 (human)): 99.5% | residual activity (PIM1 (human)): 104% | residual activity (HIPK3 (human)): 102% | residual activity (BTK (human)): 75.6% | residual activity (PRKCD (human)): 104% | residual activity (NTRK1 (human)): 67.3% | residual activity (STK25 (human)): 116%

COc1cc2nccc(Oc3ccc(NC(=S)NC(=O)c4ccccc4C)cc3)c2cc1OC
residual activity (RPS6KA4 KD2 (human)): 99.7% | residual activity (MAP4K4 (human)): 87.8% | residual activity (MAP3K14 (human)): 106% | residual activity (DAPK3 (human)): 75.4% | residual activity (CAMKK1 (human)): 91.2% | residual activity (PAK3 (human)): 99.7% | residual activity (AKT3 (human)): 95.9% | residual activity (DYRK1B (human)): 110% | residual activity (RPS6KB1 (human)): 98% | residual activity (MAP3K7 TAB1 (human)): 95.6% | residual activity (EPHA2 (human)): 86.9% | residual activity (EPHA5 (human)): 91% | residual activity (TXK (human)): 66.9% | residual activity (CDC42BPA (human)): 93.9% | residual activity (DSTYK (human)): 112% | residual activity (MAP3K5 (human)): 106% | residual activity (MAPK11 (human)): 89.3% | residual activity (PIM2 (human)): 117% | residual activity (PTK2B (human)): 93.4% | residual activity (RPS6KA3 KD1 KD2 (human)): 86.9% | residual activity (MAPK10 (human)): 98.7% | residual activity (ITK (human)): 80.6% | residual activity (MET (human)): 60.4% | residual activity (PRKCB1 (human)): 91.9% | residual activity (CDK1 CCNB1 (human)): 90.7% | residual activity (CSNK1G1 (human)): 80.1% | residual activity (TNK2 (human)): 26.9% | residual activity (FGFR3 (human)): 88.8% | residual activity (ACVR1B (human)): 92.1% | residual activity (CHEK2 (human)): 67% | residual activity (PRKD3 (human)): 97.8% | residual activity (MAP3K2 (human)): 83.1% | residual activity (ADRBK2 (human)): 94.9% | residual activity (YES1 (human)): 23.8% | residual activity (CAMK2G (human)): 103% | residual activity (VRK1 (human)): 96.3% | residual activity (PIM1 (human)): 97.6% | residual activity (HIPK3 (human)): 95.2% | residual activity (BTK (human)): 28.4% | residual activity (PRKCD (human)): 90.4% | residual activity (NTRK1 (human)): 82.5% | residual activity (STK25 (human)): 103%
